What was measured:
Experiment in all cases: Eurofins radioligand binding panel
[1] = target: T1, GAL2 (Homo sapiens, UniProt O43603); details: agonist radioligand
T1 construct: Eurofins (panel run as a service)
Excerpt: (§1) Table S1. Eurofins Lead Profiling Screen Data
(§2) This is a radioligand binding panel of 80 targets including GPCRs, ion channels, transporters and nuclear hormones. Biochemical assay results are presented as the percent inhibition of specific […]
(§3) Results showing an inhibition or stimulation higher than 50% are considered to represent significant effect and are highlighted

[2] = target: T2, MT1 (ML1A) (Homo sapiens, UniProt P48039); details: agonist radioligand
T2 construct: Eurofins
Excerpt: as §1, §2, §3

[3] = target: T3, kappa (KOP) (Homo sapiens, UniProt P41145); details: agonist radioligand
T3 construct: Eurofins
Excerpt: as §1, §2, §3

[4] = target: T4, NK2 (Homo sapiens, UniProt P21452); details: agonist radioligand
T4 construct: Eurofins
T4 sequence (P21452 whole entry): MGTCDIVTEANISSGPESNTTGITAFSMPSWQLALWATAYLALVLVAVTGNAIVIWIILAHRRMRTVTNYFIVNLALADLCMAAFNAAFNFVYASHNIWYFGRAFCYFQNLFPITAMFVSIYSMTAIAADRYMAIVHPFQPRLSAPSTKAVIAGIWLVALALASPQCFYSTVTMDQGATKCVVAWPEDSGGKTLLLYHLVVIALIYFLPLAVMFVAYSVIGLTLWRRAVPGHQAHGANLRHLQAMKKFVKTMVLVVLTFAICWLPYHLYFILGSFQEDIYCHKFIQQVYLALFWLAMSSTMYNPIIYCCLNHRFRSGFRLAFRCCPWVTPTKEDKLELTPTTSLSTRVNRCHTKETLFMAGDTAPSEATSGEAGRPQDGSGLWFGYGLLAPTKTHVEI
Excerpt: as §1, §2, §3

[5] = target: T5, M3 (Homo sapiens, UniProt P20309); details: antagonist radioligand
T5 construct: Eurofins
T5 sequence (P20309 whole entry): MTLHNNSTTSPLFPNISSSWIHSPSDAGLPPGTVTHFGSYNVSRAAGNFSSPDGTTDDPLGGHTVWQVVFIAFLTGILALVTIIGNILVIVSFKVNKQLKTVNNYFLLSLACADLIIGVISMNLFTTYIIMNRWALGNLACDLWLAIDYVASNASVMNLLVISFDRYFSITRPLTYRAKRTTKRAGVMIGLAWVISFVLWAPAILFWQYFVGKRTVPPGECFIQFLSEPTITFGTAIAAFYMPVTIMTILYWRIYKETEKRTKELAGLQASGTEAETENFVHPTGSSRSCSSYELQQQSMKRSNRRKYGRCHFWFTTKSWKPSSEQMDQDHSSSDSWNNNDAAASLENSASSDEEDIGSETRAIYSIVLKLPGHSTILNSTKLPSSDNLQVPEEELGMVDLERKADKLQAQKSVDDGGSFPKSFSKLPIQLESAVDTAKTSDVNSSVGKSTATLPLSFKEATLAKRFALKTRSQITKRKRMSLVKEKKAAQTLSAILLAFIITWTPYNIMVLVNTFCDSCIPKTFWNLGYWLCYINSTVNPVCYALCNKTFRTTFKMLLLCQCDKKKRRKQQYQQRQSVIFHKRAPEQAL
Excerpt: as §1, §2, §3

[6] = target: T6, NOP (ORL1) (Homo sapiens, UniProt P41146); details: agonist radioligand
T6 construct: Eurofins
Excerpt: as §1, §2, §3

[7] = target: T7, ETA (Homo sapiens, UniProt P25101); details: agonist radioligand
T7 construct: Eurofins (panel run as a service)
T7 sequence (P25101 21-427): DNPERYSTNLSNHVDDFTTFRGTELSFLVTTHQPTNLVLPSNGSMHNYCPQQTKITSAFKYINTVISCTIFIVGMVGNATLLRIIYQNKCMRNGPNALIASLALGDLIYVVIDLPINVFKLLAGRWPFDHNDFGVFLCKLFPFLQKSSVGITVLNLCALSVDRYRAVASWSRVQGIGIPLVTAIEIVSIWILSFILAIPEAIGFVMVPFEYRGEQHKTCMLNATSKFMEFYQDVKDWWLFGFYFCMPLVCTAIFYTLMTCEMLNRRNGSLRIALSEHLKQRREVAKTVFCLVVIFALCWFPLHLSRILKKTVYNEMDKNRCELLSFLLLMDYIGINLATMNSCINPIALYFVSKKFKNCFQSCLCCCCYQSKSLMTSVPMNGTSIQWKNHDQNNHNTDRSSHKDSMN
Excerpt: as §1, §2, §3

[8] = target: T8, D1 (Homo sapiens, UniProt P21728); details: antagonist radioligand
T8 construct: Eurofins (panel run as a service)
T8 sequence (P21728 whole entry): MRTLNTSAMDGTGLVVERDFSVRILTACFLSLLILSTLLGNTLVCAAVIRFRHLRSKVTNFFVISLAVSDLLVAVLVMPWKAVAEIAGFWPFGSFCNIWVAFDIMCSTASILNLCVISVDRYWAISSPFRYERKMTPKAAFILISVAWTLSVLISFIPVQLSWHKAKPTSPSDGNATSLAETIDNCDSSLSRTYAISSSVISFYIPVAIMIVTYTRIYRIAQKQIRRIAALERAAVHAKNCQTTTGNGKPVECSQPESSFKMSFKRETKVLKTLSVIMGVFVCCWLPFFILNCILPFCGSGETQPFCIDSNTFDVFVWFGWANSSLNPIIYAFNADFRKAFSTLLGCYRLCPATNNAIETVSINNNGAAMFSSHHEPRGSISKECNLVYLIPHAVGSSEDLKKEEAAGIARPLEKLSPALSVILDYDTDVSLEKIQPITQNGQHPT
Excerpt: as §1, §2, §3

[9] = target: T9, D3 (Homo sapiens, UniProt P35462); details: antagonist radioligand
T9 construct: Eurofins (panel run as a service)
Excerpt: as §1, §2, §3

[10] = target: T10, M5 (Homo sapiens, UniProt P08912); details: antagonist radioligand
T10 construct: Eurofins
Excerpt: as §1, §2, §3

[11] = target: T11, VPAC1 (VIP1) (Homo sapiens, UniProt P32241); details: agonist radioligand
T11 construct: Eurofins
Excerpt: as §1, §2, §3

[12] = test system: Cl- channel (GABA-gated); details: antagonist radioligand
Excerpt: as §1, §2, §3

[13] = target: T12, NTS1 (NT1) (Homo sapiens, UniProt P30989); details: agonist radioligand
T12 construct: Eurofins
Excerpt: as §1, §2, §3

[14] = target: T13, H1 (Homo sapiens, UniProt P35367); details: antagonist radioligand
T13 construct: Eurofins (panel run as a service)
Excerpt: as §1, §2, §3

[15] = target: T14, 5-HT2A (Homo sapiens, UniProt P28223); details: antagonist radioligand
T14 construct: Eurofins
T14 sequence (P28223 whole entry): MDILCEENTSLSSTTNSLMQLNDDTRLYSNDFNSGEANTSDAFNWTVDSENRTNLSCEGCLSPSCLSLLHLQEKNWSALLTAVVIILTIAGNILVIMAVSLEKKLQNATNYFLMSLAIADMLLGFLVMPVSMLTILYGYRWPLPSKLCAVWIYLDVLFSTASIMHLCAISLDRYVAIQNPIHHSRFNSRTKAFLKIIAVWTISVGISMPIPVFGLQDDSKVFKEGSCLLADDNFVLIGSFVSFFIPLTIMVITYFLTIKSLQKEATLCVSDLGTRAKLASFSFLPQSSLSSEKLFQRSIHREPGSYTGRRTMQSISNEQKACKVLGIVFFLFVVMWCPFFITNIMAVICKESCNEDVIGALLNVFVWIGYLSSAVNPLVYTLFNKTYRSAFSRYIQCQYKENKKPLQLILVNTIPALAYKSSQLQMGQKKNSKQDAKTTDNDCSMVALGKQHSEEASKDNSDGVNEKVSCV
Excerpt: as §1, §2, §3

[16] = target: T15, Y1 (Homo sapiens, UniProt P25929); details: agonist radioligand
T15 construct: Eurofins
Excerpt: as §1, §2, §3

[17] = target: T16, H2 (Homo sapiens, UniProt P25021); details: antagonist radioligand
T16 construct: Eurofins (panel run as a service)
Excerpt: as §1, §2, §3

[18] = target: T17, IP (PGI2) (Homo sapiens, UniProt P43119); details: agonist radioligand
T17 construct: Eurofins
Excerpt: as §1, §2, §3

[19] = target: T18, 5-HT5a (Homo sapiens, UniProt P47898); details: agonist radioligand
T18 construct: Eurofins
Excerpt: as §1, §2, §3

[20] = target: T19, NK3 (Homo sapiens, UniProt P29371); details: antagonist radioligand
T19 construct: Eurofins
T19 sequence (P29371 whole entry): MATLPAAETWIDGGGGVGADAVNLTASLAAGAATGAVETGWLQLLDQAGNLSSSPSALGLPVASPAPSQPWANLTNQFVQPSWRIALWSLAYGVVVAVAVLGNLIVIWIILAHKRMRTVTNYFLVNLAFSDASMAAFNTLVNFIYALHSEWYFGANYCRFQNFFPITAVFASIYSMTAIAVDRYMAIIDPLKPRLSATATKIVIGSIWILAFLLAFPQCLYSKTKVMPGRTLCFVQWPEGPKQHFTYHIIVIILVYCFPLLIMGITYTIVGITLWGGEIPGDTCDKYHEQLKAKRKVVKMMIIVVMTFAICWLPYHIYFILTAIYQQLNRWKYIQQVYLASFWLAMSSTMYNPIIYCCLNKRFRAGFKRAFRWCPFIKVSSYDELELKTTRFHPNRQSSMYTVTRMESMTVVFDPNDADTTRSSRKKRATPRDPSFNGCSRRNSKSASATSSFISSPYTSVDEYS
Excerpt: as §1, §2, §3

[21] = target: T20, 5-HT3 (Homo sapiens, UniProt P46098); details: antagonist radioligand
T20 construct: Eurofins
T20 sequence (P46098 24-478): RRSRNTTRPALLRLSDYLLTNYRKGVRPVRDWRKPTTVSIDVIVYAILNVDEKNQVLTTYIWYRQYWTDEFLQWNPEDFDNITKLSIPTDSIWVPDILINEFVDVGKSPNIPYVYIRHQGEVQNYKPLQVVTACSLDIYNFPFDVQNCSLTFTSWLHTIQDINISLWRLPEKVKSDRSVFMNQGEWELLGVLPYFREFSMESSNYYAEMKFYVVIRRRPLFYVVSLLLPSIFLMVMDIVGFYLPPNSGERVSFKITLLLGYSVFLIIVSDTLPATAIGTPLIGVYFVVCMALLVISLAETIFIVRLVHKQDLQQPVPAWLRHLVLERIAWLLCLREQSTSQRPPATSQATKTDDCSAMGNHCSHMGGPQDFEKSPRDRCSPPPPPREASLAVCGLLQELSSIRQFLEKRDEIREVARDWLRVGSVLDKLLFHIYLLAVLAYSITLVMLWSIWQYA
Excerpt: as §1, §2, §3

[22] = target: T21, CXCR2 (IL-8B) (Homo sapiens, UniProt P25025); details: agonist radioligand
T21 construct: Eurofins (panel run as a service)
Excerpt: as §1, §2, §3

[23] = target: T22, M1 (Homo sapiens, UniProt P11229); details: antagonist radioligand
T22 construct: Eurofins
T22 sequence (P11229 whole entry): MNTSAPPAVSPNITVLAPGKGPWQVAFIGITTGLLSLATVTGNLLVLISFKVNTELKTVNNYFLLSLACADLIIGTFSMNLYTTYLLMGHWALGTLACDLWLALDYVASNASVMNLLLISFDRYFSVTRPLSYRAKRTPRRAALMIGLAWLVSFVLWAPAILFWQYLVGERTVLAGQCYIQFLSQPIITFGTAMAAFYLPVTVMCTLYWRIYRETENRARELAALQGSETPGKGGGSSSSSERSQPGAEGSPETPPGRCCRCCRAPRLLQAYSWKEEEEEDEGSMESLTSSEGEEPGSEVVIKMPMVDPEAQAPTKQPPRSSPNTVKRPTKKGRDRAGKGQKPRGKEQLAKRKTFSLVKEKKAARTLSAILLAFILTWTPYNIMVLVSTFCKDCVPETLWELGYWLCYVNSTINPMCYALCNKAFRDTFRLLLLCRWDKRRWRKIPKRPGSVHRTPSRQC
Excerpt: as §1, §2, §3

[24] = target: T23, GR (Homo sapiens, UniProt P04150); details: agonist radioligand
T23 construct: Eurofins
Excerpt: as §1, §2, §3

[25] = target: T24, delta (DOP) (Homo sapiens, UniProt P41143); details: agonist radioligand
T24 construct: Eurofins
Excerpt: as §1, §2, §3

[26] = target: T25, 5-HT7 (Homo sapiens, UniProt P34969); details: agonist radioligand
T25 construct: Eurofins
Excerpt: as §1, §2, §3

[27] = target: T26, 5-HT2C (Homo sapiens, UniProt P28335); details: antagonist radioligand
T26 construct: Eurofins
Excerpt: as §1, §2, §3

[28] = target: T27, GAL1 (Homo sapiens, UniProt P47211); details: agonist radioligand
T27 construct: Eurofins (panel run as a service)
Excerpt: as §1, §2, §3

[29] = target: T28, D4.4 (Homo sapiens, UniProt P21917); details: antagonist radioligand
T28 construct: Eurofins (panel run as a service)
Excerpt: as §1, §2, §3

[30] = test system: P2X; details: agonist radioligand
Excerpt: as §1, §2, §3

[31] = target: T29, PAC1 (PACAP) (Homo sapiens, UniProt P41586); details: agonist radioligand
T29 construct: Eurofins
Excerpt: as §1, §2, §3

[32] = target: T30, Y2 (Homo sapiens, UniProt P49146); details: agonist radioligand
T30 construct: Eurofins
T30 sequence (P49146 whole entry): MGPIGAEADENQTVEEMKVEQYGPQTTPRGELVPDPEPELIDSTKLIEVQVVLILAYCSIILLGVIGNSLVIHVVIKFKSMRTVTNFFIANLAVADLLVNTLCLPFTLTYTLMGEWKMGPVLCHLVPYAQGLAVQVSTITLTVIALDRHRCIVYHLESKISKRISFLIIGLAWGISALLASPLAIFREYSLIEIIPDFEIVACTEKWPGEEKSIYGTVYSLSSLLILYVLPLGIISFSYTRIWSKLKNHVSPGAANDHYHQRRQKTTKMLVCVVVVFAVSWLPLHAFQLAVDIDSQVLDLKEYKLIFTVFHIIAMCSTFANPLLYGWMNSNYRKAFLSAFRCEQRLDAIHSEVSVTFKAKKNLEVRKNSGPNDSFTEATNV
Excerpt: as §1, §2, §3

[33] = test system: Na+ channel (site 2); details: antagonist radioligand
Excerpt: as §1, §2, §3

[34] = target: T31, M4 (Homo sapiens, UniProt P08173); details: antagonist radioligand
T31 construct: Eurofins
Excerpt: as §1, §2, §3

[35] = target: T32, 5-HT transporter (Homo sapiens, UniProt P31645); details: antagonist radioligand
T32 construct: Eurofins
Excerpt: as §1, §2, §3

[36] = target: T33, MC4 (Homo sapiens, UniProt P32245); details: agonist radioligand
T33 construct: Eurofins
Excerpt: as §1, §2, §3

[37] = target: T34, 5-HT1B (Homo sapiens, UniProt P28222); details: antagonist radioligand
T34 construct: Eurofins
Excerpt: as §1, §2, §3

[38] = target: T35, D2S (Homo sapiens, UniProt P14416); details: antagonist radioligand
T35 construct: Eurofins (panel run as a service)
Excerpt: as §1, §2, §3

[39] = target: T36, CCR1 (Homo sapiens, UniProt P32246); details: agonist radioligand
T36 construct: Eurofins (panel run as a service)
T36 sequence (P32246 whole entry): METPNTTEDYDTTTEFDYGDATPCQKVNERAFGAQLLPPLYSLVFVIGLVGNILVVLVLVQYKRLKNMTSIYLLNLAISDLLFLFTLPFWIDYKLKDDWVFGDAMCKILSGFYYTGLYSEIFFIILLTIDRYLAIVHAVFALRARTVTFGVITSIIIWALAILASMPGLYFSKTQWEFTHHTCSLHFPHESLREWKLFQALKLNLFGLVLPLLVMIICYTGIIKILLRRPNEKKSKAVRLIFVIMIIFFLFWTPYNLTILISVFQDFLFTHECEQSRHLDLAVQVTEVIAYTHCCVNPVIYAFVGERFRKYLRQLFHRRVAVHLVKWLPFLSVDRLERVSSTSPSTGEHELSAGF
Excerpt: as §1, §2, §3

[40] = test system: P2Y; set-up: species or system rat; details: agonist radioligand
Excerpt: as §1, §2, §3

[41] = test system: Ca2+ channel (L, verapamil site) (phenylalkylamine); set-up: species or system rat; details: antagonist radioligand
Excerpt: as §1, §2, §3

[42] = test system: KV channel; set-up: species or system rat; details: antagonist radioligand
Excerpt: as §1, §2, §3

[43] = test system: SKCa channel; set-up: species or system rat; details: antagonist radioligand
Excerpt: as §1, §2, §3

[44] = test system: GABA (non-selective); set-up: species or system rat; details: agonist radioligand
Excerpt: as §1, §2, §3

[45] = test system: PCP; set-up: species or system rat; details: antagonist radioligand
Excerpt: as §1, §2, §3

T1 sequence (O43603 whole entry): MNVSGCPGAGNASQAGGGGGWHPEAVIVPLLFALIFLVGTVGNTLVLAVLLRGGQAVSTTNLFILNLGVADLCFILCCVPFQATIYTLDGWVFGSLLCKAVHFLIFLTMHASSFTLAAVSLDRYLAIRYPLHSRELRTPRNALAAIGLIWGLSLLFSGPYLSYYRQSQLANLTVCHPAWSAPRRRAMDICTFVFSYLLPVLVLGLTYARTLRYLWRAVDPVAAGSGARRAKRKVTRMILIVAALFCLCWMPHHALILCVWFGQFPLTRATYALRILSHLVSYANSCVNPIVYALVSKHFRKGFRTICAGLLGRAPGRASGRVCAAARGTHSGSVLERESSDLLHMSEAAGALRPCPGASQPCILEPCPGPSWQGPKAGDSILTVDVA

Q: How did the inhibition at 10 µM [1] turn out when `Cn1nc(-c2ccnn2C)cc1CNC(=O)c1cc(-c2ccco2)ccc1Cl` [Compound 19d, 2-Chloro-N-((1,2′-dimethyl-1H,2’H-[3,3′-bipyrazol]-5-yl)methyl)-5-(furan-2-yl)benzamide] was run?
A: -9%

Q: What about the inhibition at 10 µM [2] of the same molecule?
A: 17%

Q: What about the inhibition at 10 µM [3] of the same molecule?
A: 11%

Q: And the inhibition at 10 µM [4]?
A: 11%

Q: And the inhibition at 10 µM [5]?
A: 2%

Q: And the inhibition at 10 µM [6]?
A: -1%

Q: And the inhibition at 10 µM [7]?
A: -6%

Q: What about the inhibition at 10 µM [8] of the same molecule?
A: 3%

Q: And the inhibition at 10 µM [9]?
A: -6%

Q: And the inhibition at 10 µM [10]?
A: 3%

Q: And the inhibition at 10 µM [11]?
A: -4%

Q: What about the “% Inhibition at 10 µM” value [12] of the same molecule?
A: 9%

Q: What about the inhibition at 10 µM [13] of the same molecule?
A: -1%

Q: What about the inhibition at 10 µM [14] of the same molecule?
A: 6%

Q: What about the inhibition at 10 µM [15] of the same molecule?
A: -1%

Q: And the inhibition at 10 µM [16]?
A: -7%

Q: And the inhibition at 10 µM [17]?
A: -31%

Q: What about the inhibition at 10 µM [18] of the same molecule?
A: -7%

Q: What about the inhibition at 10 µM [19] of the same molecule?
A: -2%

Q: And the inhibition at 10 µM [20]?
A: -8%

Q: And the inhibition at 10 µM [21]?
A: 2%

Q: What about the inhibition at 10 µM [22] of the same molecule?
A: 3%

Q: And the inhibition at 10 µM [23]?
A: 14%

Q: And the inhibition at 10 µM [24]?
A: 0%

Q: What about the inhibition at 10 µM [25] of the same molecule?
A: 8%

Q: And the inhibition at 10 µM [26]?
A: -4%

Q: And the inhibition at 10 µM [27]?
A: 3%

Q: What about the inhibition at 10 µM [28] of the same molecule?
A: -4%

Q: And the inhibition at 10 µM [29]?
A: 22%

Q: What about the “% Inhibition at 10 µM” value [30] of the same molecule?
A: -6%

Q: What about the inhibition at 10 µM [31] of the same molecule?
A: -2%

Q: What about the inhibition at 10 µM [32] of the same molecule?
A: -18%

Q: What about the “% Inhibition at 10 µM” value [33] of the same molecule?
A: 14%

Q: And the inhibition at 10 µM [34]?
A: 11%

Q: What about the inhibition at 10 µM [35] of the same molecule?
A: 47%

Q: What about the inhibition at 10 µM [36] of the same molecule?
A: 14%

Q: And the inhibition at 10 µM [37]?
A: 11%

Q: And the inhibition at 10 µM [38]?
A: 6%

Q: What about the inhibition at 10 µM [39] of the same molecule?
A: -1%

Q: And the “% Inhibition at 10 µM” value [40]?
A: 23%

Q: What about the “% Inhibition at 10 µM” value [41] of the same molecule?
A: -16%

Q: And the “% Inhibition at 10 µM” value [42]?
A: 8%

Q: And the “% Inhibition at 10 µM” value [43]?
A: 2%

Q: And the “% Inhibition at 10 µM” value [44]?
A: -3%

Q: And the “% Inhibition at 10 µM” value [45]?
A: 2%

— paper PMC11684029, “Discovery of VU6024578/BI02982816: An mGlu1 Positive Allosteric Modulator with Efficacy in Preclinical Antipsychotic and Cognition Models” (Journal of Medicinal Chemistry, 2024)
